Assay results from patent publication US9801833B2, “Compositions and methods using tiglic aldehyde” (NESTEC S.A., priority 2013, dated 2017).
Where two headings read alike, the source gives them in different places.

What was measured:
mice [1] = experiment: short term food intake after a single ingestion in mice (FIG. 5); assay type: in vivo; settings: vs sham gavage
TRPV1 [2] = target: T1, TRPV1 (Homo sapiens, UniProt Q8NER1); settings: cited from earlier work
T1 construct: expressed in transfected cells

mice [3] = experiment: body weight gain in mice with chronic ingestion (FIG. 3); assay type: in vivo; settings: mice chronically fed high fat diet containing 0.2 wt %, vs same diet without
mice [4] = experiment: gastric emptying after a single ingestion in mice (FIG. 6); assay type: in vivo; settings: vs sham gavage
TRPM8 [5] = target: T2, TRPM8 (Homo sapiens, UniProt Q7Z2W7); settings: cited from earlier work
T2 construct: expressed in transfected cells

mice [6] = experiment: insulin sensitivity in mice with chronic ingestion (FIG. 4); assay type: in vivo; settings: mice chronically fed high fat diet containing 0.2 wt %, vs same diet without
TRPA1 [7] = target: T3, TRPA1 (Homo sapiens, UniProt O75762); settings: read-out: EC50 of TRPA1 activation; cited from earlier work
T3 construct: expressed in transfected cells

"empty" cells = experiment: in vitro activation of "empty" cells (FIG. 7); assay type: cell-based
TRPA1 [8] = target: T3, TRPA1; experiment: in vitro activation of TRPA1 in cells (FIG. 7); assay type: cell-based
TRPM8 [9] = target: T2, TRPM8; experiment: in vitro activation of hTRPM8 in cells (FIG. 7); assay type: cell-based; settings: FIG. 7, squares
TRPV1 [10] = target: T1, TRPV1; experiment: in vitro activation of TRPV1 in cells (FIG. 7); assay type: cell-based; settings: FIG. 7, triangles
TRPA1 [11] = target: T3, TRPA1; experiment: desensitization of TRPA1 by pretreatment fifteen minutes before cinnamaldehyde (FIGS. 8A, 8B); assay type: cell-based; settings: applied to cells fifteen minutes before cinnamaldehyde
Procedure: (§1) Specifically, tiglic aldehyde was applied to cells fifteen minutes before cinnamaldehyde, icilin and capsaicin, which are specific agonists for TRPA1, TRPM8 and TRPV1 cation channels, respectively. After specific agonist application, the cation channel […] was measured. […] The left bars in each graph represent the controls lacking tiglic aldehyde pretreatment, the right bars in each graph represent the samples including tiglic aldehyde pretreatment.

TRPV1 [12] = target: T1, TRPV1; experiment: desensitization of TRPV1 by pretreatment fifteen minutes before capsaicin (FIGS. 8A, 8B); assay type: cell-based; settings: applied to cells fifteen minutes before capsaicin
Procedure: as §1

TRPM8 [13] = target: T2, TRPM8; experiment: desensitization of TRPM8 by pretreatment fifteen minutes before icilin (FIGS. 8A, 8B); assay type: cell-based; settings: applied to cells fifteen minutes before icilin
Procedure: as §1

[14] = Excerpt: Without wishing to be bound by theory, the present inventors believe that activation of TRPA1 is effective to 1) help to provoke the swallowing reflex of dysphagic patients, 2) decrease appetite by delaying gastric emptying, 3) reduce body weight gain, and 4) reduce glycemia by improving insulin sensitivity or glucose tolerance, 5) improve mood, memory or cognition. Tiglic aldehyde is described as having fresh, fruity, green, pulpy and almond nutty nuances (Fenaroli's Handbook of Flavor Ingredients, sixth edition), making it more pleasant compared to other TRPA1 agonists.

T2 sequence (Q7Z2W7 whole entry): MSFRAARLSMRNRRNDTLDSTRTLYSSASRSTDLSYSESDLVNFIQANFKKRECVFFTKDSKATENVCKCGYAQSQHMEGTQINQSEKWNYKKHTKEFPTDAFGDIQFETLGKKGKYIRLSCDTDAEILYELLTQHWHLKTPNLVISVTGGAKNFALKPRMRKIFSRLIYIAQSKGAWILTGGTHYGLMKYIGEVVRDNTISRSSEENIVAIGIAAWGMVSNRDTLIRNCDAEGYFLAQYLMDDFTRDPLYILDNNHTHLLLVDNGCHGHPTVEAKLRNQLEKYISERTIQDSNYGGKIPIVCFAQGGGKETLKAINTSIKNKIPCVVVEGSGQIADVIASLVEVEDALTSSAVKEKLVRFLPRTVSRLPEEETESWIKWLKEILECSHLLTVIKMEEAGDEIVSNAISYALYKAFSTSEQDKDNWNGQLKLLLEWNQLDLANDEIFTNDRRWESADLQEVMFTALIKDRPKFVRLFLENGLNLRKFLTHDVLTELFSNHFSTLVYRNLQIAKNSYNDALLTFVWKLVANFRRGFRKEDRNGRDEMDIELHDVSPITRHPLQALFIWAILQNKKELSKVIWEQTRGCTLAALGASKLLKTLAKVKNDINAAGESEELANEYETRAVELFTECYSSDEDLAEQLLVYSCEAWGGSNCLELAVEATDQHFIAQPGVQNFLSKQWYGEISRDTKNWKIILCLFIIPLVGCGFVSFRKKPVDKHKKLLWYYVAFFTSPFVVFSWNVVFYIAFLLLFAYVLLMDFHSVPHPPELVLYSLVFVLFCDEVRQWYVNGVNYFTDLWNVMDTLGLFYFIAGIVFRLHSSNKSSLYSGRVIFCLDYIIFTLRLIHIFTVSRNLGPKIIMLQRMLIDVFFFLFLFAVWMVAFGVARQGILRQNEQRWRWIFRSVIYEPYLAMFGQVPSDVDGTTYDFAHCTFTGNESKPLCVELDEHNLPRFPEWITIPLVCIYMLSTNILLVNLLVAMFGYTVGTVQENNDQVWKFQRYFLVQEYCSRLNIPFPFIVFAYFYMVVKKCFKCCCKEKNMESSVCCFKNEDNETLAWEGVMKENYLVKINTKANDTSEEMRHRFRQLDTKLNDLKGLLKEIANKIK
T3 sequence (O75762 whole entry, species assumed): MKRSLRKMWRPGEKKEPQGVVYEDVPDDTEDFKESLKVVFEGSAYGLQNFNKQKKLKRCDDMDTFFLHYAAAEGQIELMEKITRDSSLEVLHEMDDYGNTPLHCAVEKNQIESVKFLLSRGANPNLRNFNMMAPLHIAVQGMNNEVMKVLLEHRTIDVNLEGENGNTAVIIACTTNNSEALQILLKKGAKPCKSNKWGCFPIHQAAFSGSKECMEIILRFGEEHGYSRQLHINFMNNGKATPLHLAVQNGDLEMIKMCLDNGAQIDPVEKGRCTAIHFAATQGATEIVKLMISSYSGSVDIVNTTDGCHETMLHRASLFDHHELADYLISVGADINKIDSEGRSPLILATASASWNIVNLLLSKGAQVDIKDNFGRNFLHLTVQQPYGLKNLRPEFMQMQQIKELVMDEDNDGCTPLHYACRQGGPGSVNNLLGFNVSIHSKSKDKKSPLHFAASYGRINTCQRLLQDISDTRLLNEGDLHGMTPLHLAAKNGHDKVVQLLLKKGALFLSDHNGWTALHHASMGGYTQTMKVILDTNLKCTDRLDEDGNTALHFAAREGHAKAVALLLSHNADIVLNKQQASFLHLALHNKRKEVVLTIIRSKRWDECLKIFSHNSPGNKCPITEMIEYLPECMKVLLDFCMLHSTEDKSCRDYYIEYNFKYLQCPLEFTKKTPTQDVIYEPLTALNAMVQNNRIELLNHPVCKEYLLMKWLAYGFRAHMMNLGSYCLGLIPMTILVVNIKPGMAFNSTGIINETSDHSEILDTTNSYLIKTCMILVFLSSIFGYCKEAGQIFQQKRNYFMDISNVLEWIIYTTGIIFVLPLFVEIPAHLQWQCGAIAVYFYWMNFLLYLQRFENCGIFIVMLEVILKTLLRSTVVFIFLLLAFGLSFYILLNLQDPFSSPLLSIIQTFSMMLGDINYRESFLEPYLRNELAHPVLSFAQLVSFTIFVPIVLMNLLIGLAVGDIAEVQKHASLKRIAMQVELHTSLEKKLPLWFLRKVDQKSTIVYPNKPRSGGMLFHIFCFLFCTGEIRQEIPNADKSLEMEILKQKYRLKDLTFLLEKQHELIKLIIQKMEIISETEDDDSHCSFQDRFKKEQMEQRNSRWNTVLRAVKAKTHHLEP
T1 sequence (Q8NER1 whole entry, species assumed): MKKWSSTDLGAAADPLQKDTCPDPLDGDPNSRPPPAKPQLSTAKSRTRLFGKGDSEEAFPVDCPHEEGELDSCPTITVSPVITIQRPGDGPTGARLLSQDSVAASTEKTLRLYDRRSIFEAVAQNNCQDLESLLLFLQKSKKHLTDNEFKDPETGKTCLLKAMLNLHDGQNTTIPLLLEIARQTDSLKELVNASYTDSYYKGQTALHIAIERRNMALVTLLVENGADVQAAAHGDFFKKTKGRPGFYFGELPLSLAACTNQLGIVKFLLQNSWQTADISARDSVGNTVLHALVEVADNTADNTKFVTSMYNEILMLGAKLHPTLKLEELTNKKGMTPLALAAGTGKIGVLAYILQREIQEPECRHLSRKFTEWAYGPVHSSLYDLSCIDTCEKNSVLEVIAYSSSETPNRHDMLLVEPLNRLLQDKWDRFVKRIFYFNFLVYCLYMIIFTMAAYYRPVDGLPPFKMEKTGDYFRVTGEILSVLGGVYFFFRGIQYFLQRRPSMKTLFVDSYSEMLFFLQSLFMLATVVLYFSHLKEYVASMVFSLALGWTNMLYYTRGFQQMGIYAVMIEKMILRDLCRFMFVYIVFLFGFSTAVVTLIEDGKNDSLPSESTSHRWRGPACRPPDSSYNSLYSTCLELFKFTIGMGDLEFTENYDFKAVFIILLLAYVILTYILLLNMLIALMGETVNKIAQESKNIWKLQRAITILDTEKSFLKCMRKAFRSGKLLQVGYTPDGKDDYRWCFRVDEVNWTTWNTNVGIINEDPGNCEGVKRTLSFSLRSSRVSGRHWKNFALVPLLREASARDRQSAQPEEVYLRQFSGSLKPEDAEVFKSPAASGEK

| SMILES | short term food intake (mice [1]) | activation of TRPV1 (TRPV1 [2]) | body weight gain (mice [3]) | gastric emptying (mice [4]) | activation of TRPM8 (TRPM8 [5]) | insulin sensitivity (mice [6]) | EC50 (TRPA1 [7]) [µM] | activation of "empty" cells ("empty" cells) | activation of TRPA1 (TRPA1 [8]; FIG. 7, diamonds) | efficacy of TRPA1 activation relative to cinnamaldehyde (TRPA1 [8]; relative to known TRPA1 agonist cinnamaldehyde) [%] | activation of hTRPM8 (TRPM8 [9]) | activation of TRPV1 (TRPV1 [10]) | desensitization of TRPA1 (TRPA1 [11]) | desensitization of TRPV1 (TRPV1 [12]) | desensitization of TRPM8 (TRPM8 [13]) | irritancy [14] |
| --- | --- | --- | --- | --- | --- | --- | --- | --- | --- | --- | --- | --- | --- | --- | --- | --- |
| O=CC=Cc1ccccc1 [cinnamaldehyde] | reduction in short term food intake | not | gained less weight | delayed gastric emptying | not | improved insulin sensitivity | ~60 |  |  |  |  |  |  |  |  |  |
| C/C=C(\C)C=O [tiglic aldehyde] |  |  |  |  |  |  |  | no activation was observed | activated TRPA1 (diamonds) in a dose-dependent fashion | 120 | no activation was observed | no activation was observed | does not desensitize | does not desensitize | does not desensitize | not an irritant |
